Earlier results on one compound are cited in publication PMC9199201, “Biomimetic and temporal-controlled nanocarriers with ileum transporter targeting for achieving oral administration of chemotherapeutic drugs” (Journal of Nanobiotechnology, 2022).

On the set-up of this series: method as in PMID 23220325.

As for `CC(=O)O[C@H]1C(=O)[C@@]2(C)[C@H]([C@H](OC(=O)c3ccccc3)[C@]3(O)C[C@H](OC(=O)[C@H](O)[C@@H](NC(=O)c4ccccc4)c4ccccc4)C(C)=C1C3(C)C)[C@]1(OC(C)=O)CO[C@@H]1C[C@@H]2O` [PTX, paclitaxel], the Oral bioavailability result is reported as “less than 1%”.
